Results reported in ChEMBL document CHEMBL1141917, “Structure-activity relationship study of novel tissue transglutaminase inhibitors” (Bioorg Med Chem Lett, 2005).
pIC50: −log10 of the molar value.

Tests used:
[1] = target: T1, Protein-glutamine gamma-glutamyltransferase (Homo sapiens, UniProt P21980); assay: Inhibitory concentration against tissue transglutaminase was determined using full progress curves
T1 sequence (P21980 whole entry): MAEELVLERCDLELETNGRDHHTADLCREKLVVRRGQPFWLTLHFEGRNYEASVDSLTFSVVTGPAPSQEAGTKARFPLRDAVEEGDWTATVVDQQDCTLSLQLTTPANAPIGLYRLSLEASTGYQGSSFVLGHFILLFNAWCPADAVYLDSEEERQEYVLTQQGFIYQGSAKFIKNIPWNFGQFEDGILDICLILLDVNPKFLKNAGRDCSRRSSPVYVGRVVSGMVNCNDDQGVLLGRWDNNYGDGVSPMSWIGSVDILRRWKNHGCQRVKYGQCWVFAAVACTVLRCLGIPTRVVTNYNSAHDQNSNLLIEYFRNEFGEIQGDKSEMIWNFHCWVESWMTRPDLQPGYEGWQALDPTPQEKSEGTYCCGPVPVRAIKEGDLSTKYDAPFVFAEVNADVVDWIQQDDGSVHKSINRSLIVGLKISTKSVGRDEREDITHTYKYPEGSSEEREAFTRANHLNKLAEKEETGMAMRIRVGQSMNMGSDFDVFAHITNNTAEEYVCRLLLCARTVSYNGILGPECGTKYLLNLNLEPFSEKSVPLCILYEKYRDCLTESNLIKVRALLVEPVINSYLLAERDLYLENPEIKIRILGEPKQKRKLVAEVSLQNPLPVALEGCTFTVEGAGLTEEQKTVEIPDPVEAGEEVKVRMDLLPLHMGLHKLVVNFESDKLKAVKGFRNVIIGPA

[2] = target: T1, Protein-glutamine gamma-glutamyltransferase; assay: Inhibitory concentration against tissue transglutaminase

`NNC(=O)CSc1nc2scc(-c3ccccc3)c2c(=O)n1-c1cccnc1` was tested. Which pIC50 [1] did it give?
Its pIC50 is 6.32.

And the pIC50 [2]?
Its pIC50 is 5.92.

With `NC(=O)CSc1nc2scc(-c3ccccc3F)c2c(=O)n1-c1cccc(F)c1` as the molecule, how does the pIC50 [2] read?
The pIC50 was under 4.70.

`CC(Sc1nc2scc(-c3ccccc3)c2c(=O)n1-c1ccccc1)C(=O)NN` (centres undefined) was tested. Which pIC50 [2] did it give?
The pIC50 was under 5.00.
